In brackets after ≈: the same amount, converted by molar mass. Activity calls are given as the source filed them. The rule behind the calls is not given here.
Tests used:
[1] = Stability in pH 7.4 phosphate buffer assessed as half life; format: physicochemical
[2] = Solubility in water; format: physicochemical
[3] = Lipophilicity, logP of compound; format: physicochemical; settings: octanol/water
[4] = test system: PC-12; assay: Antioxidant activity against H2O2-induced oxidative stress in rat PC12 cells assessed as cell viability preincubated for 24 hrs followed by H2O2 stimulation further incubated for 5 hrs by MTS assay; format: functional, cell-based
[5] = test system: Plasma; assay: Anticoagulant activity in rabbit platelet poor plasma assessed as thrombin time at 100 uM incubated for 3 mins by coagulometric analysis (reference value: 12.58 +/- 0.76 sec); format: functional, Oryctolagus cuniculus
[6] = test system: Plasma; assay: Anticoagulant activity in rabbit platelet poor plasma assessed as activated partial thromboplastin time at 100 uM incubated for 3 mins by coagulometric analysis (reference value: 19.13 +/- 0.54 sec); format: functional, Oryctolagus cuniculus
[7] = test system: Plasma; assay: Anticoagulant activity in rabbit platelet poor plasma assessed as prothrombin time at 100 uM incubated for 3 mins by coagulometric analysis (reference value: 4.32 +/- 0.28 sec); format: functional, Oryctolagus cuniculus
[8] = test system: Plasma; assay: Anticoagulant activity in rabbit platelet poor plasma assessed as fibrinogen level at 100 uM incubated for 3 mins by coagulometric analysis (reference value: 14.24 +/- 0.67 g/l); format: functional, Oryctolagus cuniculus
[9] = test system: Rattus norvegicus; assay: Neuroprotective activity in ig dosed Sprague-Dawley rat model of middle cerebral artery occlusion-induced ischemia-reperfusion injury assessed as decrease in infarct area by TTC staining based assay; format: functional, organism-based
[10] = test system: Rattus norvegicus; assay: Neuroprotective activity in Sprague-Dawley rat middle cerebral artery occlusion-induced ischemia-reperfusion injury model assessed as decrease in irregular cell morphology of hippocampus CA1 at 0.35 to 1.40 mmol/kg, ig administered for 7 days by HE staining based assay; format: functional, organism-based
[11] = test system: Rattus norvegicus; assay: Neuroprotective activity in Sprague-Dawley rat middle cerebral artery occlusion-induced ischemia-reperfusion injury model assessed as reduction in hyperchromic of hippocampus CA1 at 0.35 to 1.40 mmol/kg, ig administered for 7 days by HE staining based assay; format: functional, organism-based
[12] = test system: Rattus norvegicus; assay: Neuroprotective activity in Sprague-Dawley rat middle cerebral artery occlusion-induced ischemia-reperfusion injury model assessed as reduction in nuclear pyknosis of hippocampus CA1 at 0.35 to 1.40 mmol/kg, ig administered for 7 days by HE staining based assay; format: functional, organism-based
[13] = test system: Rattus norvegicus; assay: Neuroprotective activity in Sprague-Dawley rat middle cerebral artery occlusion-induced ischemia-reperfusion injury model assessed as reduction in dissolution of hippocampus CA1 at 0.35 to 1.40 mmol/kg, ig administered for 7 days by HE staining based assay; format: functional, organism-based
[14] = test system: Rattus norvegicus; assay: Neuroprotective activity in Sprague-Dawley rat model of middle cerebral artery occlusion-induced ischemia-reperfusion injury assessed as decrease in infarct area at 0.7 mmol/kg, ig for 7 days by TTC staining based assay; format: functional, organism-based

SMILES: Cc1nc(C)c(COC(=O)NCC(=O)Oc2ccc(-c3cc(=O)c4c(O)c(O)c(O)cc4o3)cc2)nc1C
- half-life [1]: 14.3 h
- solubility [2]: 454 µg/mL (≈ 871 µM)
- logP [3]: 2.1
- Activity [4]: Dose-dependent effect

SMILES: Cc1nc(C)c(COC(=O)COc2ccc(-c3cc(=O)c4c(O)c(O)c(O)cc4o3)cc2)nc1C
- half-life [1]: 21.4 h
- solubility [2]: 30.6 µg/mL (≈ 64 µM)
- logP [3]: 2.39
- Activity [4]: Dose-dependent effect

SMILES: Cc1nc(C)c(C(=O)N[C@H](CC(C)C)C(=O)Oc2ccc(-c3cc(=O)c4c(O)c(O)c(O)cc4o3)cc2)nc1C
- half-life [1]: 69.2 h
- solubility [2]: 26 µg/mL (≈ 47.5 µM)
- logP [3]: 0.91
- Activity [4]: Dose-dependent effect

SMILES: Cc1nc(C)c(COC(=O)N[C@@H](C(=O)Oc2ccc(-c3cc(=O)c4c(O)c(O)c(O)cc4o3)cc2)C(C)C)nc1C
- half-life [1]: 45.6 h
- solubility [2]: 252 µg/mL (≈ 448 µM)
- logP [3]: 1.04
- Activity [4]: Dose-dependent effect

SMILES: Cc1nc(C)c(COC(=O)N[C@H](CC(C)C)C(=O)Oc2ccc(-c3cc(=O)c4c(O)c(O)c(O)cc4o3)cc2)nc1C
- half-life [1]: 57.2 h
- solubility [2]: 221 µg/mL (≈ 382 µM)
- logP [3]: 1.69
- Activity [4]: Dose-dependent effect
- TT [5]: 37.91 s
- APTT [6]: 47.56 s
- PT [7]: 8.57 s
- Fibrinogen level [8]: 2.47 g/L

SMILES: Cc1nc(C)c(C(=O)N[C@@H](C(=O)N[C@@H](C)C(=O)Oc2ccc(-c3cc(=O)c4c(O)c(O)c(O)cc4o3)cc2)C(C)C)nc1C
- half-life [1]: 51.6 h
- solubility [2]: 856 µg/mL (≈ 1420 µM)
- logP [3]: 1.98
- Activity [4]: Dose-dependent effect

SMILES: CC[C@H](C)[C@@H](NC(=O)OCc1nc(C)c(C)nc1C)C(=O)Oc1ccc(-c2cc(=O)c3c(O)c(O)c(O)cc3o2)cc1
- half-life [1]: 64.8 h
- solubility [2]: 234 µg/mL (≈ 406 µM)
- logP [3]: 2.83
- Activity [4]: Dose-dependent effect
- TT [5]: 38.42 s
- APTT [6]: 49.28 s
- PT [7]: 8.32 s
- Fibrinogen level [8]: 2.54 g/L

SMILES: Cc1nc(C)c(C(=O)N[C@@H](C(=O)Oc2ccc(-c3cc(=O)c4c(O)c(O)c(O)cc4o3)cc2)C(C)C)nc1C
- half-life [1]: > 72 h
- solubility [2]: 240 µg/mL (≈ 449 µM)
- logP [3]: 1.38
- Activity [4]: Dose-dependent effect

SMILES: Cc1nc(C)c(COC(=O)N[C@H](C)C(=O)Oc2ccc(-c3cc(=O)c4c(O)c(O)c(O)cc4o3)cc2)nc1C
- half-life [1]: 27.8 h
- solubility [2]: 799 µg/mL (≈ 1490 µM)
- logP [3]: 1.53
- Activity [4]: Dose-dependent effect
- TT [5]: 36.25 s
- APTT [6]: 48.21 s
- PT [7]: 7.72 s
- Fibrinogen level [8]: 2.68 g/L
- Activity [9]: Dose-dependent effect
- Activity [10]: Active
- Activity [11]: Active
- Activity [12]: Active
- Activity [13]: Active

SMILES: Cc1nc(C)c(C(=O)NCC(=O)Oc2ccc(-c3cc(=O)c4c(O)c(O)c(O)cc4o3)cc2)nc1C
- half-life [1]: > 72 h
- solubility [2]: 628 µg/mL (≈ 1280 µM)
- logP [3]: 2.8
- Activity [4]: Dose-dependent effect
- TT [5]: 32.16 s
- APTT [6]: 43.57 s
- PT [7]: 6.39 s
- Fibrinogen level [8]: 3.12 g/L

SMILES: Cc1nc(C)c(COC(=O)CCCOc2ccc(-c3cc(=O)c4c(O)c(O)c(O)cc4o3)cc2)nc1C
- half-life [1]: 19.8 h
- solubility [2]: 356 µg/mL (≈ 703 µM)
- logP [3]: 1.48
- Activity [4]: Dose-dependent effect

SMILES: O=c1cc(-c2ccc(O)cc2)oc2cc(O)c(O)c(O)c12 [SCUTELLAREIN]
- half-life [1]: 5.5 h
- solubility [2]: 14.4 µg/mL (≈ 50.3 µM)
- logP [3]: 0.96
- Activity [4]: Dose-dependent effect
- TT [5]: 18.12 s
- APTT [6]: 34.26 s
- PT [7]: 5.72 s
- Fibrinogen level [8]: 7.41 g/L
- Activity [14]: Active

SMILES: Cc1nc(C)c(C)nc1C [LIGUSTRAZINE]
- solubility [2]: 4500 µg/mL (≈ 33000 µM)
- logP [3]: 1.26
- Activity [4]: Dose-dependent effect
- TT [5]: 25.36 s
- APTT [6]: 39.24 s
- PT [7]: 6.13 s
- Fibrinogen level [8]: 3.28 g/L
- Activity [14]: Active

SMILES: Cc1nc(C)c(C(=O)Oc2ccc(-c3cc(=O)c4c(O)c(O)c(O)cc4o3)cc2)nc1C
- half-life [1]: 15.1 h
- solubility [2]: 12.1 µg/mL (≈ 27.9 µM)
- logP [3]: 3.01
- Activity [4]: Dose-dependent effect
